Values of other authors in patent publication US9326930B2, “Calcium sequestration compositions and methods of treating skin pigmentation disorders and conditions” (NEOCUTIS S.A., priority 2009, dated 2016).

How the values were obtained:
[1] = test system: melanocyte-keratinocyte co-cultures; settings: intracellular calcium in keratinocytes chelated
B16F0 melanoma cells = settings: L-forms, not D-forms
[2] = target: melanocortin receptor 1 (MC1R) (Homo sapiens, UniProt Q01726)
melanocortin receptor 1 (MC1R), sequence (Q01726 whole entry, species assumed): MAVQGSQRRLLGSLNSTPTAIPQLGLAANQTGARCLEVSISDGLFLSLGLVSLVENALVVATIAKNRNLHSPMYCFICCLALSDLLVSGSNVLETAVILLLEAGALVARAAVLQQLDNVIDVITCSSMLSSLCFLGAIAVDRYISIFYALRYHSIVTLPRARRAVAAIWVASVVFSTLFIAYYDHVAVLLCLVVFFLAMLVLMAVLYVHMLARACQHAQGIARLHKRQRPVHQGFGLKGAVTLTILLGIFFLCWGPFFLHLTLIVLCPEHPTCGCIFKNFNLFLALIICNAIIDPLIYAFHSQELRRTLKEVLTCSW

Row | SMILES | effect on pigmentation (B16F0 melanoma cells) | also measured
1 | CC(=O)OCOC(=O)CN(CC(=O)OCOC(C)=O)c1ccccc1OCCOc1ccccc1N(CC(=O)OCOC(C)=O)CC(=O)OCOC(C)=O [BAPTA-AM, 1,2-bis-(o-aminophenoxy)-ethane-N,N,N′,N′-tetraacetic acid tetra-acetoxymethyl ester] |  | melanin transfer [1]: melanin transfer was inhibited
2 | C[C@H](N)C(=O)O [L-alanine] | hypopigmenting effects | 
3 | CC[C@H](C)[C@H](N)C(=O)O [L-isoleucine] | hypopigmenting effects | 
4 | CC(C)C[C@H](N)C(=O)O [L-leucine] | hypopigmenting effects | 
5 | NCC(=O)O [glycine] | hypopigmenting effects | 
6 | C=CCCCCCCCCC(=O)N[C@@H](Cc1ccccc1)C(=O)O [undecylenoyl phenylalanine] |  | affinity to MC1R [2]: affinity towards MC1R; action on α-MSH ([2]; in vitro): antagonist of α-MSH
